Data taken from patent US20250388623A1, “PEPTIDE INHIBITOR AND USE THEREOF” (CHENGDU BRILLIANT INSPIRATION BIOTHERAPEUTICS CO., LTD, priority 2022, published 2025).
pIC50: −log10 of the molar value. Bridge positions count the residues as written; N and C are the ends. Peptide text beside a SMILES is read from it.

Legend:
[1] = molecular target: T1, binding of TSP-1 protein to CD36, a TSP-1 receptor protein (Homo sapiens, UniProt P07996); experiment: ELISA: blocking of CD36 binding to TSP-1 protein; details: for inhibition at 100 µM: 3 h, 100 μM polypeptide, 0.25 μg/mL Fc-tagged CD36, blocking of CD36 binding to TSP-1, read-out: Blocking rate (Mean, %); for pIC50: concentrations 0-100 μM
T1 construct: purchased novoprotein (TSP-1); R&D Systems (Fc-tagged CD36) CU45 (TSP-1); 1955-CD-050 (CD36-Fc)
T1 sequence (P07996 19-1170): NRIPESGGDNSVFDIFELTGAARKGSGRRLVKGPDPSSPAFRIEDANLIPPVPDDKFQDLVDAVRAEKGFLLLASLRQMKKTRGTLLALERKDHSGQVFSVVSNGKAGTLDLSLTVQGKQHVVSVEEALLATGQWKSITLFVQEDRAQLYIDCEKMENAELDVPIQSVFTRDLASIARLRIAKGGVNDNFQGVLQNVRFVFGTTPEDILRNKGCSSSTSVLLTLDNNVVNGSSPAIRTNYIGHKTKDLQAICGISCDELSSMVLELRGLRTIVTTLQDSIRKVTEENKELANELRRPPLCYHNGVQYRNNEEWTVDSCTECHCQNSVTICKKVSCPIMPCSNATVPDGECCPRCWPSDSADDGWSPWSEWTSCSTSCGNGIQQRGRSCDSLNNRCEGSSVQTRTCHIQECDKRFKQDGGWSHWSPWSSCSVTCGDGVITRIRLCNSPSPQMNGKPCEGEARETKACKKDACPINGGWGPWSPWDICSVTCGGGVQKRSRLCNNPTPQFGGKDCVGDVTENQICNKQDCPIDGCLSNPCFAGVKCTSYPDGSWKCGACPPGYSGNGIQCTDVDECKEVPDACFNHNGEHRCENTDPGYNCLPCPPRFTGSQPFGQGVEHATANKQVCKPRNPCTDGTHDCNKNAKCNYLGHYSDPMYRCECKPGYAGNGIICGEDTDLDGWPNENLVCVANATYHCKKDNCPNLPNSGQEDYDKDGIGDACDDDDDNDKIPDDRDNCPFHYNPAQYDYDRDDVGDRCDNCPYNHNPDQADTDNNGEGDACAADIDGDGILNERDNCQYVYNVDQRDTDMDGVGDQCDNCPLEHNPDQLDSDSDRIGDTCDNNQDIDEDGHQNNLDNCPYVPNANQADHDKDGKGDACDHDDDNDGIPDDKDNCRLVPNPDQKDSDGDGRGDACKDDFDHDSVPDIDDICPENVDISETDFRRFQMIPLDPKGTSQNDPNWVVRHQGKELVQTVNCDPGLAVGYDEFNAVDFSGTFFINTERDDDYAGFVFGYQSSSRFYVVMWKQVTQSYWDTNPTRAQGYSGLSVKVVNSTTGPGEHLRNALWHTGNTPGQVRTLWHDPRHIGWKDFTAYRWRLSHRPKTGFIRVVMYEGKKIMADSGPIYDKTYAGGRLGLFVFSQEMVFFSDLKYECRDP
Procedure, shortened: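 Plate-bound TSP-1 (2 μg/mL coat) incubated 3 h at 37 °C with Fc-tagged CD36 (0.25 μg/mL final) ± polypeptide (100 μM final single-point; 0.5–100 μM for IC50); bound CD36 detected with FITC anti-Fc antibody fluorescence. Blocking rate = (control − treated)/control × 100%; IC50 from concentration dependence.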

active TGF-β = experiment: Active TGF-β level in lung tissue, bleomycin (BLM) mouse lung fibrosis model; assay type: in vivo; details: single intratracheal dose 3 mg/kg on Day 7, lung 24 h later, BLM model group = 100.00
Procedure, shortened: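 Male C57/6J mice (6–8 wk) received intratracheal bleomycin 0.7 USP/kg on Day 1, then a single intratracheal peptide dose of 3 mg/kg on Day 7, with saline for the model group. The value is the ratio of peptide group to model group.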

| Compound | inhibition at 100 µM [1] [%] | active TGF-β content in lung tissue, ratio to model group, Mean(%) (active TGF-β; 3 mg/kg) | pIC50 [1] | active TGF-β content in lung tissue, ratio to model group, Mean(%) (active TGF-β) |
| --- | --- | --- | --- | --- |
| C[C@@H]1NC(=O)[C@H](CC(=O)O)NC(=O)[C@H](CCC(N)=O)NC(=O)[C@H]([C@@H](C)O)NC(=O)[C@H](CC(N)=O)NC(=O)[C@H](CC(=O)O)NC(=O)[C@H](CCC(=O)O)NC1=O [SEQ ID NO: 40, cyclo[Thr-Gln-Asp-Ala-Glu-Asp-Asn]] (cyclo(AEDNTQD)) | 37.5 | 68.27 |  |  |
| CC(=O)N[C@H](C(=O)N[C@H]1CSSC[C@@H](C(=O)O)NC(=O)[C@H](CC(N)=O)NC(=O)[C@H](CC(=O)O)NC(=O)[C@H](CCC(=O)O)NC(=O)[C@H](C)NC(=O)[C@H](CC(=O)O)NC1=O)[C@@H](C)O [SEQ ID NO: 43, Ac-Thr-cyclo[Cys-Asp-Ala-Glu-Asp-Asn-Cys]] (Ac-TCDAEDNC-OH; disulfide 2-8) | 52 |  | 5.44 | 75.92 |
| CC(=O)N[C@H](C(=O)N[C@H]1CSSC[C@@H](C(N)=O)NC(=O)[C@H](CC(N)=O)NC(=O)[C@H](CC(=O)O)NC(=O)[C@H](CCC(=O)O)NC(=O)[C@H](C)NC(=O)[C@H](CC(=O)O)NC1=O)[C@@H](C)O [SEQ ID NO: 44, Ac-Thr-cyclo[Cys-Asp-Ala-Glu-Asp-Asn-Cys]-NH2] (Ac-TCDAEDNC-NH2; disulfide 2-8) | 52.9 |  | 5.17 | 81.73 |
| C[C@@H]1NC(=O)[C@H]([C@@H](C)O)NC(=O)[C@H](CC(N)=O)NC(=O)[C@H](CC(=O)O)NC(=O)[C@H](CCC(=O)O)NC(=O)[C@@H]2CCCN2C(=O)[C@H](CC(=O)O)NC(=O)[C@H](CCC(N)=O)NC(=O)[C@H]([C@@H](C)O)NC(=O)[C@H](CO)NC1=O [SEQ ID NO: 46, cyclo[Thr-Gln-Asp-Pro-Glu-Asp-Asn-Thr-Ala-Ser]] (cyclo(ASTQDPEDNT)) | 56.1 |  |  | 79.36 |
| Ac-TQDAEDN-NH2 [SEQ ID NO: 06, Ac-Thr-Gln-Asp-Ala-Glu-Asp-Asn-NH2] | 17.7 |  |  | 76.76 |
| Ac-TQDAEDNTASH-NH2 [SEQ ID NO: 33, Ac-Thr-Gln-Asp-Ala-Glu-Asp-Asn-Thr-Ala-Ser-His-NH2] | 21.4 |  |  | 86.61 |
| Ac-TQDAEDPTA-NH2 [SEQ ID NO: 22, Ac-Thr-Gln-Asp-Ala-Glu-Asp-Pro-Thr-Ala-NH2] | 40.9 |  |  | 82.72 |
| Ac-TQDAEDPTAS-NH2 [SEQ ID NO: 25, Ac-Thr-Gln-Asp-Ala-Glu-Asp-Pro-Thr-Ala-Ser-NH2] | 33 |  |  | 86.63 |
| Ac-TQDPEDNTAS-NH2 [SEQ ID NO: 26, Ac-Thr-Gln-Asp-Pro-Glu-Asp-Asn-Thr-Ala-Ser-NH2] | 53.8 |  |  | 83.44 |
